Where “and” joins values, the source holds several entries; their conditions need not be identical. Equal entries are not always repeated.
How the values were obtained:
[1] = daily oral 150 mg/d in patients with cancer; cited from earlier work
[2] = target: AAG; details: cited from earlier work
[3] = target: HSA (Homo sapiens, UniProt P02768); experiment: Equilibrium dialysis; format: binding
[4] = Clinical plasma pharmacokinetics in patients with advanced breast cancer; format: in vivo, human; details: for Tmax: po, 20 mg
[5] = in vitro; details: human, human plasma, pH 7.2
[6] = test system: NOTCH1; experiment: In vitro Notch cellular assay; format: cell-based, human
[7] = target: human α1-acid glycoprotein (AAG) (Homo sapiens, UniProt P02763); experiment: Equilibrium dialysis, binding in isolated AAG solution; details: for mean Fu: total drug 500 ng/mL (1,065 nmol/L); for RO4929097 fraction unbound estimated from Equation (A): nK 1.0 × 10^6 L/mol; for maximum binding concentration (nP) of AAG: estimate ± SE
human α1-acid glycoprotein (AAG), sequence (P02763 19-201): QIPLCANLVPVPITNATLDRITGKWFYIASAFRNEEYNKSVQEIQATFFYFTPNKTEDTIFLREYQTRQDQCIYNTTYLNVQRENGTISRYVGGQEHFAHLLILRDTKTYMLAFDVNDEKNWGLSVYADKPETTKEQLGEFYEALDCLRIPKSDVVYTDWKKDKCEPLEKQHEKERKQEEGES

[8] = test system: plasma proteins
[9] = test system: plasma proteins; remark: listed apart in the source
[10] = given alone, 20 mg orally, median (interquartile range), n = 8
[11] = single oral dose of 20 mg in 8 patients
[12] = Homo sapiens, U2OS, 24 h, read-out: inhibition of cellular Notch activity

HSA, sequence (P02768 25-609): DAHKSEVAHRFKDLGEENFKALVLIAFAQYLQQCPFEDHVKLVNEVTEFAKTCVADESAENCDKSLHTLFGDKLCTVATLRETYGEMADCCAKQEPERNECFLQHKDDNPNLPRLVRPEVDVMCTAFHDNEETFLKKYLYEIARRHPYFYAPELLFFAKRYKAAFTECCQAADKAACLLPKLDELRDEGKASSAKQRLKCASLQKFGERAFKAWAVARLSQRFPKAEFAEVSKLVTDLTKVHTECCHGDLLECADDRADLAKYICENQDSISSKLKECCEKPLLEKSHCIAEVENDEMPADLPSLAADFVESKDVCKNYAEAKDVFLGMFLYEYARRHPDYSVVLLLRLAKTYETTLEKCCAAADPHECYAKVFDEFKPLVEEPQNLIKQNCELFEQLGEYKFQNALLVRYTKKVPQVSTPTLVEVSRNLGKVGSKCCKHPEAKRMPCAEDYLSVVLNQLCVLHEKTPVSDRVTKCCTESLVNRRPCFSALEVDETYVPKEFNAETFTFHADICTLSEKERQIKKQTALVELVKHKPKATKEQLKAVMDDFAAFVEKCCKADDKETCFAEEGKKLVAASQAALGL

CS(=O)(=O)c1ccc(C(=O)Nc2ccc(Cl)c(-c3ccccn3)c2)c(Cl)c1 [GDC-0449]
average steady-state plasma concentration of total GDC-0449 [1]: approximately 25 μmol/L | unbound drug levels as % of the total drug [1]: less than 1% | Kd ([2]; read-out: Kd for AAG, in vitro equilibrium dialysis): 1500 nM

CC(C)(C(=O)NCC(F)(F)C(F)(F)F)C(=O)N[C@@H]1C(=O)Nc2ccccc2-c2ccccc21 [RO4929097, RO4929097 (γ-secretase inhibitor)]
Kd [3]: 90.9 µM

CC(C)(C(=O)NCC(F)(F)C(F)(F)F)C(=O)N[C@@H]1C(=O)Nc2ccccc2-c2ccccc21 [RO4929097]
Decrease in average systemic exposure to total RO4929097 ([4]; co-administered with GDC-0449): 8.3 fold | Decrease in average unbound RO4929097 exposure ([4]; co-administered with GDC-0449): 1.7 fold | Unbound RO4929097 AUC0–24h [4, 10]: 52.8 (33.2–64.9) nmol/L h | Unbound RO4929097 Cmax [4, 10]: 4.3 (2.7–5.6) nmol/L | AUC(0-t) ([4]; human, plasma, oral, Total RO4929097 AUC0–24h, in combination with GDC-0449 150 mg orally, median (interquartile range), n = 8): 0.723 µM·h | Tmax ([4]; human, plasma, Total RO4929097 Tmax, given alone, 20 mg orally, median (interquartile range), n = 8): 2.5 h | Tmax ([4]; human, plasma, Unbound RO4929097 Tmax, given alone, 20 mg orally, median (interquartile range), n = 8): 1.5 h | Interindividual variability of total RO4929097 AUC0-24h (max/min) ([4]; single oral dose of 20 mg): 16 fold and up to 16 fold | Interindividual variability of total RO4929097 Cmax (max/min) ([4]; single oral dose of 20 mg): 15 fold | Interindividual variability of unbound RO4929097 AUC0-24h (max/min) ([4]; single oral dose of 20 mg): 4 fold | Interindividual variability of unbound RO4929097 Cmax (max/min) ([4]; single oral dose of 20 mg): 3 fold | Unbound RO4929097 AUC0-24h, range among patients ([4]; single oral dose of 20 mg): 28.1 to 113.0 nmol·h/L | Unbound RO4929097 Cmax, range among patients ([4]; single oral dose of 20 mg): 1.9 to 6.1 nmol/L | Coefficient variation of AUC0-24h, total RO4929097 [4, 11]: 99% | Coefficient variation of AUC0-24h, unbound RO4929097 [4, 11]: 49% | fraction unbound at 24 h [5]: 0.047 | RO4929097 Notch-inhibitory activity in presence of AAG ([6]; AAG 0.5, 1.4, […], total RO4929097 500 and 5,000 nmol/L): significantly reduced | inhibition at 0.05 µM [6, 12]: 2.1% | inhibition at 0.5 µM [6, 12]: 62% | inhibition at 5 µM [6, 12]: 73% | IC50 ([6]; Homo sapiens, U2OS, read-out: unbound RO4929097 concentration for 50% inhibition of the maximum Notch activity (IC50)): 109 nM | mean Fu ([7]; AAG 0.2 mg/mL): 19.0% | RO4929097 fraction unbound estimated from Equation (A) ([7]; AAG 0.5 mg/mL): 8% | maximum binding concentration (nP) of AAG ([7]; AAG 1.4 mg/mL, Equation (C), GDC-0449 0 μmol/L): 23.1 µmol/L and 23.1 ± 0.9 µmol/L | maximum binding concentration (nP) of AAG ([7]; AAG 1.4 mg/mL, GDC-0449 5 μmol/L): 25.3 ± 1.1 µmol/L | maximum binding concentration (nP) of AAG ([7]; AAG 1.4 mg/mL, GDC-0449 25 μmol/L): 34.9 ± 2.0 µmol/L | RO4929097 fraction unbound estimated from Equation (A) ([7]; AAG 1.4 mg/mL): 3% | mean Fu ([7]; AAG […]): 1.1% | total binding constant (nK) for AAG ([7]; Equation (A), Fu versus protein concentration, nonlinear regression): 1e+06 L/mol and 1.1e+06 L/mol | bound in human plasma [8]: > 97% | intraindividual variability in RO4929097 fraction unbound ([9]; during the treatment in individual patient): up to 5 fold | interindividual variability in RO4929097 fraction unbound ([9]; patients, alone or in combination with GDC-0449): up to 10 fold

Cc1ccc(NC(=O)c2ccc(CN3CCN(C)CC3)cc2)cc1Nc1nccc(-c2cccnc2)n1 [imatinib]
binding affinity for AAG (Ka) [2]: 1.7e+06 L/mol
